Experimental data published in PMC5641942 (Physiological Reports, 2017).
Entries after “also recorded” stand apart in the source; their conditions may differ. Where two headings read alike, the source gives them in different places. Values belong to the compound of their own block, whether it stands above or below them.

How the values were obtained:
[1] = target: T1, TauT (Homo sapiens, UniProt P31641); settings: pH 7.4/7.4, 0.052 μmol/L taurine, 20 mg/mL test substance
T1 sequence (P31641 1-620): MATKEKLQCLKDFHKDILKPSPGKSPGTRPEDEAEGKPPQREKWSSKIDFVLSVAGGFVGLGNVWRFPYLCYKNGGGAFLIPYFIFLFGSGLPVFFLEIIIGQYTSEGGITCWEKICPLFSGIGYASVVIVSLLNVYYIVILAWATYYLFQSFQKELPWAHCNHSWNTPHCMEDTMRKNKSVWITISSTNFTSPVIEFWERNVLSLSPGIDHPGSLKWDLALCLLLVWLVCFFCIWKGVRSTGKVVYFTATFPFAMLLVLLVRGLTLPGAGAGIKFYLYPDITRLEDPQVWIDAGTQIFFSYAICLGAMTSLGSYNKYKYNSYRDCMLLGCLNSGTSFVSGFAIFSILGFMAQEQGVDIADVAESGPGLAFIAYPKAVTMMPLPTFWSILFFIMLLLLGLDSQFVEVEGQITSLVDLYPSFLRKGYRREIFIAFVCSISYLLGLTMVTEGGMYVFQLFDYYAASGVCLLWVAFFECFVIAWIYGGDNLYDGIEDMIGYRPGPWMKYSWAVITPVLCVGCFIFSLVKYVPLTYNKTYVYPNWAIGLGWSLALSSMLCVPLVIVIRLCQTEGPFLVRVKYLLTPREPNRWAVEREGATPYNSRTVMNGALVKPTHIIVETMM

[2] = target: T2, PAT1 (Homo sapiens, UniProt Q7Z2H8); settings: pH 6.0, 100 μmol/L taurine
T2 sequence (Q7Z2H8 whole entry): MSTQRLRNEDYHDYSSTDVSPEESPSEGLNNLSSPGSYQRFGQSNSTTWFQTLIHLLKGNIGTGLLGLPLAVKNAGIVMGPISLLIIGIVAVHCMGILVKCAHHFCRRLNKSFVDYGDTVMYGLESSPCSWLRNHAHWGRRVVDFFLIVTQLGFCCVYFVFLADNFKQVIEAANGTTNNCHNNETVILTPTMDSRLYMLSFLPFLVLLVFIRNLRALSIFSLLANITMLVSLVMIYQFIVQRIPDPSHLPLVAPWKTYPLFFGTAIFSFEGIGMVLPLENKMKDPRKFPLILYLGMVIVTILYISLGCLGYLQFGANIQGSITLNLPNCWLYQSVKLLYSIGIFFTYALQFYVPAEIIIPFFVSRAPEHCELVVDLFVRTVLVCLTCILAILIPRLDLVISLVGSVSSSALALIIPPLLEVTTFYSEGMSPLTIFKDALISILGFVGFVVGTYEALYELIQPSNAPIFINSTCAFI
Procedure: (§5) After the 5 min incubation, the isotope‐containing buffer solution was removed and the wells were washed three times with 500 μL ice‐cold HEPES‐buffer, pH 7.4. The cells were detached using 200 μL of 0.1% Triton X‐100, and transferred to scintillation plastic vials and 2 mL of scintillation cocktail was added.

[3] = target: T2, PAT1; settings: donor pH 6.0, 100 μmol/L taurine, 20 mg/mL test substance
[4] = target: T1, TauT; experiment: Taurine (52 nmol/L) uptake in Caco-2 cells at pH 7.4 in the presence of amino acids; assay type: cell-based; parameters: endogenous in cells; host or cells: Caco-2; settings: pH 7.4, 0.052 μmol/L taurine
Description: […]. […] […].

[5] = test system: PAT1 and TauT; experiment: Taurine (52 nmol/L) uptake in Caco-2 cells at pH 6.0 in the presence of amino acids; assay type: cell-based, human; settings: pH 6.0, 0.052 μmol/L taurine
Procedure: as §5

[6] = target: T3, PAT1 (Rattus norvegicus, UniProt Q924A5); experiment: Oral taurine pharmacokinetics with co-administered BCH or Pro and Sar; assay type: in vivo, male Sprague-Dawley rats; settings: oral 30 mg/kg taurine, 200 mg/kg BCH
T3 construct: tissue Charles River Deutschland; host or cells: intestine of living male Sprague-Dawley rats (oral dosing)
T3 sequence (Q924A5 whole entry): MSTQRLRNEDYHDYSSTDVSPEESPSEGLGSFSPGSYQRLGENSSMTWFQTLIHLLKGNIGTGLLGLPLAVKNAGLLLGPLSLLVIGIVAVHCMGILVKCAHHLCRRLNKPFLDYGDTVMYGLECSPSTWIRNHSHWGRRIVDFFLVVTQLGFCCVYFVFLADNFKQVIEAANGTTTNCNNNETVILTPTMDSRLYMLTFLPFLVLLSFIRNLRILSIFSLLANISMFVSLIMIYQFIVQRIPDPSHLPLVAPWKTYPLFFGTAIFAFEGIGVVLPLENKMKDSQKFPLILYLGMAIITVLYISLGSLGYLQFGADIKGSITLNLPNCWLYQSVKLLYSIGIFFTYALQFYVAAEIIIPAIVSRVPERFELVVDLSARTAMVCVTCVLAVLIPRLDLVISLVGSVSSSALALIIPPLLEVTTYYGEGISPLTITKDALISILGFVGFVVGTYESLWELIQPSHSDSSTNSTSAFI
Procedure: (§1) The pH was adjusted with NaOH or HCl to 7.40 ± 0.05.
(§2) The animals were acclimatized for a minimum of 5 days in groups of two and maintained on standard feed with free access to water. Prior to dosing, the animals were fasted for 16–20 h with free access to water.
(§3) Plasma was harvested immediately by 10 min of centrifugation at 4°C, 3600g (Multifuge 1 S‐R, Heraeus, Hanau, Germany) and stored in polypropylene tubes (Pony Vial, PerkinElmer, Waltham, MA, USA) at −20°C until analysed. At the end of the experiment, animals were sacrificed by spinal dislocation using a guillotine. Plasma samples were left to defrost and mixed with 4 mL of liquid scintillation cocktail. The samples were counted for 3 min on a scintillation counter from Tri‐Carb 2900TR.
Based on this V d1, volume of distribution in the central compartment 1; V d2, volume of distribution in the peripheral compartment 2; AUC, area under the curve; and K10, the elimination rate from the central department, were calculated using Phoenix® 6.3 version (Pharsight Corporation, A Certara Company, USA). […] C max and t max were found as mean values of the plasma concentration profiles within each group. […] The total clearance was calculated as dose divided by AUC.

[7] = parameters: method as in Sved et al. (2007); settings: male Sprague-Dawley rats, ref Sved et al. (2007), cited from earlier work
[8] = Intravenous taurine pharmacokinetics in rats; assay type: in vivo, male Sprague-Dawley rats; settings: for A / B / α / β: two-compartment model; for clearance / AUC(0-inf): male, Sprague-Dawley, rat, plasma; for clearance: iv
Procedure: as §1, §2, §3
(§4) Based on this V d1, volume of distribution in the central compartment 1; V d2, volume of distribution in the peripheral compartment 2; AUC, area under the curve; and K10, the elimination rate from the central department, were calculated using Phoenix® 6.3 version (Pharsight Corporation, A Certara Company, USA). […] C max and t max were found as mean values of the plasma concentration profiles within each group. Area under the plasma concentration versus time profiles (AUC), an expression of total exposure, were determined with noncompartmental analysis using the linear trapezoidal rule from time zero to C max and by log linear methods from C max to the last measured plasma concentration and denoted AUC0‐tlast, k e is the first order elimination rate constant calculated as the slope from the terminal log plasma concentration time curve of individual animals. The total clearance was calculated as dose divided by AUC.

[9] = parameters: method as in Yu et al. 2013; settings: beagle dogs, noncompartmental analysis; ref Yu et al. 2013; cited from earlier work
[10] = Oral taurine pharmacokinetics in rats; assay type: in vivo; settings: male, Sprague-Dawley, rat, plasma, median [Q1, Q3]
[11] = Oral taurine pharmacokinetics in rats; assay type: in vivo, male Sprague-Dawley rats; settings: for AUC: read-out: AUC0‐tlast (converted); for k el: read-out: k e (converted)
Procedure: as §1, §2, §3, §4

[12] = target: T1, TauT; experiment: Concentration-dependent taurine uptake in Caco-2 cells at pH 7.4; assay type: in vitro ADME; parameters: endogenous in cells; host or cells: Caco-2; settings: for K m of saturable taurine uptake: Caco-2, pH 7.4, 0.052–100 μmol/L taurine, 5 min
Procedure: Polycarbonate membranes (1.12 cm^2, 0.4 μm pore size) of TranswellTM inserts or 24-well cell culture plates (1.90 cm^2) were used as supports for cell cultivation. […] Experiments were performed 6 days after seeding the Caco-2 cells cultured on 24 wells plates or performed 13-15 days postseeding cells on TranswellTM insert. […] The culture medium was changed every 2-3 days. […] HBSS buffer consisted of in mM: […] KCl, 5.33; […] NaCl, 138; […] Nohr et al. 2014b).

[13] = target: T1, TauT; settings: pH 6.0, 52 nmol/L taurine
[14] = male, Sprague-Dawley, rat, plasma, oral 10 mg/kg
[15] = male, Sprague-Dawley, rat, plasma, oral 30 mg/kg
[16] = male, Sprague-Dawley, rat, plasma, oral 100 mg/kg
[17] = male, Sprague-Dawley, rat, plasma, oral 299 mg/kg
[18] = male, Sprague-Dawley, rat, plasma, oral 997 mg/kg

Structure (SMILES): O=C(O)Cc1c[nH]cn1 [IAA, imidazole‐4‐acetic acid]
effect on taurine uptake ([2]; 10 mmol/L test substance): not affected significantly
effect on taurine uptake ([4]; 10 mmol/L test substance): significantly inhibited
taurine uptake ([4]; 10 mmol/L test substance): approximately 10 % of the control uptake
effect on taurine uptake ([5]; 10 mmol/L test substance): significantly inhibited

Structure (SMILES): NCCS(=O)(=O)O [Taurine, 2‐aminoethane sulfonic acid]
AUC ([7]; oral 30 mg/kg): 236 µg·h/mL
AUC ([7]; oral 300 mg/kg): 1760 µg·h/mL
AUC0‐∞/dose ([8]; IV 1 mg/kg): 89 ± 18.9 μg·min/mL pr. mg/kg
K10 ([8]; IV 1 mg/kg): 0.04 ± 0.01 min⁻¹
V d1 ([8]; IV 1 mg/kg): 299 ± 48 mL/kg
V d2 ([8]; IV 1 mg/kg): 4608 ± 974 mL/kg
A ([8]; IV 1 mg/kg): 3.5 ± 0.5 µg/mL
B ([8]; IV 1 mg/kg): 0.12 ± 0.03 µg/mL
α ([8]; IV 1 mg/kg): 0.14 ± 0.02 min⁻¹
β ([8]; IV 1 mg/kg): 1.9 ± 0.4 1/min *10^−3
AUC0‐∞/dose ([8]; IV 10 mg/kg): 59 ± 19.0 μg·min/mL pr. mg/kg
K10 ([8]; IV 10 mg/kg): 0.06 ± 0.01 min⁻¹
V d1 ([8]; IV 10 mg/kg): 353 ± 62 mL/kg
V d2 ([8]; IV 10 mg/kg): 4662 ± 1153 mL/kg
A ([8]; IV 10 mg/kg): 31.0 ± 4.2 µg/mL
B ([8]; IV 10 mg/kg): 0.89 ± 0.14 µg/mL
α ([8]; IV 10 mg/kg): 0.144 ± 0.03 min⁻¹
β ([8]; IV 10 mg/kg): 3.0 ± 0.9 1/min *10^−3
AUC0‐∞/dose ([8]; IV 30 mg/kg): 115 ± 39.2 μg·min/mL pr. mg/kg
K10 ([8]; IV 30 mg/kg): 0.03 ± 0.01 min⁻¹
V d1 ([8]; IV 30 mg/kg): 323 ± 63 mL/kg
V d2 ([8]; IV 30 mg/kg): 8374 ± 4466 mL/kg
B ([8]; IV 30 mg/kg): 1.87 ± 0.45 µg/mL
α ([8]; IV 30 mg/kg): 0.07 ± 0.01 min⁻¹
β ([8]; IV 30 mg/kg): 1.3 ± 0.6 1/min *10^−3
clearance ([8]; 1 mg/kg, IV 1 mg/kg, read-out: CL): 11.7 ± 1.3 mL/min/kg
clearance ([8]; 10 mg/kg, IV 10 mg/kg, read-out: CL): 18.7 ± 2.54 mL/min/kg
clearance ([8]; 30 mg/kg, IV 30 mg/kg, read-out: CL): 9.4 ± 1.42 mL/min/kg
clearance ([8]; IV 1–30 mg/kg, compartmental analysis, read-out: clearance): 9 to 18 mL/min/kg
AUC(0-inf) ([8]; IV 1 mg/kg): 1480 ng·h/mL
AUC(0-inf) ([8]; IV 10 mg/kg): 9780 ng·h/mL
AUC(0-inf) ([8]; IV 30 mg/kg): 57500 ng·h/mL
clearance [9]: 0.20 L/h/kg
Tmax ([10]; oral 100 mg/kg): 30 min
Tmax ([10]; oral 299 mg/kg): 30 min
Cmax [11, 14]: 2 ± 0.2 µg/mL
AUC [11, 14]: 3.55 µg·h/mL
k el [11, 14]: 6.67e-05 s⁻¹
Cmax [11, 15]: 15.7 ± 2.4 µg/mL
AUC [11, 15]: 18.6 µg·h/mL
k el [11, 15]: 0.000117 s⁻¹
Cmax [11, 16]: 70 ± 6.5 µg/mL
AUC [11, 16]: 89.9 µg·h/mL
k el [11, 16]: 0.000167 s⁻¹
Cmax [11, 17]: 228 ± 16 µg/mL
AUC [11, 17]: 307 µg·h/mL
k el [11, 17]: 0.000167 s⁻¹
Cmax [11, 18]: 643 ± 81 µg/mL
Tmax ([11]; male, Sprague-Dawley, rat, plasma, oral 997 mg/kg, median [Q1, Q3]): 45 min
AUC [11, 18]: 1320 µg·h/mL
k el [11, 18]: 0.00015 s⁻¹
AUC0‐∞/dose ([11]; oral 10 mg/kg): 21 ± 1.3 μg·min/mL pr. mg/kg
AUC0‐∞/dose ([11]; oral 30 mg/kg): 37 ± 4.5 μg·min/mL pr. mg/kg
AUC0‐∞/dose ([11]; oral 100 mg/kg): 54 ± 6.0 μg·min/mL pr. mg/kg
AUC0‐∞/dose ([11]; oral 299 mg/kg): 62 ± 6.7 μg·min/mL pr. mg/kg
AUC0‐∞/dose ([11]; oral 997 mg/kg): 79 ± 6.7 μg·min/mL pr. mg/kg
V max of saturable taurine uptake ([12]; Caco-2, pH 7.4): 4.6 ± 0.8 pmol/(cm^2·min)
nonsaturable component, B ([12]; Caco-2, pH 7.4): 5.7e-08 ± 8e-09 cm/min
K m of saturable taurine uptake [12]: 5.6 µmol/L
K m of saturable taurine uptake ([12]; listed as taurine): 5.6 ± 2.6 µmol/L
TauT share of carrier mediated taurine uptake [13]: 78%

Now from value to compound, other results behind:

effect on absorptive (A-B) permeability of taurine [1]: did not significantly decrease
effect on taurine uptake ([2]; 10 mmol/L test substance): not affected significantly
effect on taurine uptake ([2]; 20 mg/mL test substance): did not affect
effect on absorptive (A-B) permeability of taurine [3]: did not alter
effect on taurine uptake ([4]; 10 mmol/L test substance): not affected
Structure (SMILES): NC1(C(=O)O)CC2CCC1C2 (stereo not drawn) [BCH, 2‐Amino‐2‐norbornanecarboxylic acid]
effect on taurine uptake ([5]; 10 mmol/L test substance): not affected
effect on taurine uptake ([5]; 20 mg/mL test substance): did not affect
effect on taurine plasma concentration versus time profile (AUC0‐tlast, t max, C max) [6]: similar; also recorded: did not have any significant effect

effect on absorptive (A-B) permeability of taurine [1]: did not significantly decrease
effect on taurine uptake ([4]; 10 mmol/L test substance): not affected
Structure (SMILES): O=C(O)[C@@H]1CCCN1 [Pro, L‐proline]

effect on absorptive (A-B) permeability of taurine [1]: did not significantly decrease
effect on taurine uptake ([4]; 10 mmol/L test substance): not affected
effect on taurine uptake ([4]; 20 mg/mL test substance): decreased
Structure (SMILES): CNCC(=O)O [Sar, sarcosine]
